PMC4993559 (Journal of Experimental Pharmacology, 2016)
pIC50: −log10 of the molar value. Read-outs that look alike come from different tables or passages of the source.

How the values were obtained:
ROS1 [1] = biological target: T1, ROS1 (Homo sapiens, UniProt P08922); details: read-out: IC50 (class); Momelotinib scale; cited from earlier work
c-src [2] = biological target: T2, c-src (Homo sapiens, UniProt P12931); details: read-out: IC50 (class); Momelotinib scale; cited from earlier work
HIPK4 [3] = biological target: T3, HIPK4 (Homo sapiens, UniProt Q8NE63); details: read-out: IC50 (class); Momelotinib scale; cited from earlier work
T3 sequence (Q8NE63 1-616): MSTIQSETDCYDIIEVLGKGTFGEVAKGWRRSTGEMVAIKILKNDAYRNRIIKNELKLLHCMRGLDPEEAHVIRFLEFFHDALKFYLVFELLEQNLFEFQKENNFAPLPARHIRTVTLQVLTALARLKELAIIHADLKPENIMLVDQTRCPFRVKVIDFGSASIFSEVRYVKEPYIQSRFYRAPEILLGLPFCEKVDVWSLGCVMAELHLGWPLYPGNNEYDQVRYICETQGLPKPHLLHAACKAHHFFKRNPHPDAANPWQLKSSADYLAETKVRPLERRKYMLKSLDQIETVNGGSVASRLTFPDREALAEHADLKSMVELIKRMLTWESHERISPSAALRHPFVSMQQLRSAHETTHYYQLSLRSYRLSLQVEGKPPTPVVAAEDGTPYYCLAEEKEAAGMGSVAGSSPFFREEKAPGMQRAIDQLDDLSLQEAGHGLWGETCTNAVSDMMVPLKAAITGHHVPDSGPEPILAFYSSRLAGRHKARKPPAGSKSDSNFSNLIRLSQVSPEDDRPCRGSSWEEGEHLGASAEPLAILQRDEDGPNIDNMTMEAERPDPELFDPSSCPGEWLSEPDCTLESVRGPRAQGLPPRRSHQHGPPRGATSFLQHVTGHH

CSF1R (c-fms) [4] = biological target: T4, CSF1R (c-fms) (Homo sapiens, UniProt P07333); details: read-out: IC50 (class); Momelotinib scale; cited from earlier work
T4 sequence (P07333 20-972): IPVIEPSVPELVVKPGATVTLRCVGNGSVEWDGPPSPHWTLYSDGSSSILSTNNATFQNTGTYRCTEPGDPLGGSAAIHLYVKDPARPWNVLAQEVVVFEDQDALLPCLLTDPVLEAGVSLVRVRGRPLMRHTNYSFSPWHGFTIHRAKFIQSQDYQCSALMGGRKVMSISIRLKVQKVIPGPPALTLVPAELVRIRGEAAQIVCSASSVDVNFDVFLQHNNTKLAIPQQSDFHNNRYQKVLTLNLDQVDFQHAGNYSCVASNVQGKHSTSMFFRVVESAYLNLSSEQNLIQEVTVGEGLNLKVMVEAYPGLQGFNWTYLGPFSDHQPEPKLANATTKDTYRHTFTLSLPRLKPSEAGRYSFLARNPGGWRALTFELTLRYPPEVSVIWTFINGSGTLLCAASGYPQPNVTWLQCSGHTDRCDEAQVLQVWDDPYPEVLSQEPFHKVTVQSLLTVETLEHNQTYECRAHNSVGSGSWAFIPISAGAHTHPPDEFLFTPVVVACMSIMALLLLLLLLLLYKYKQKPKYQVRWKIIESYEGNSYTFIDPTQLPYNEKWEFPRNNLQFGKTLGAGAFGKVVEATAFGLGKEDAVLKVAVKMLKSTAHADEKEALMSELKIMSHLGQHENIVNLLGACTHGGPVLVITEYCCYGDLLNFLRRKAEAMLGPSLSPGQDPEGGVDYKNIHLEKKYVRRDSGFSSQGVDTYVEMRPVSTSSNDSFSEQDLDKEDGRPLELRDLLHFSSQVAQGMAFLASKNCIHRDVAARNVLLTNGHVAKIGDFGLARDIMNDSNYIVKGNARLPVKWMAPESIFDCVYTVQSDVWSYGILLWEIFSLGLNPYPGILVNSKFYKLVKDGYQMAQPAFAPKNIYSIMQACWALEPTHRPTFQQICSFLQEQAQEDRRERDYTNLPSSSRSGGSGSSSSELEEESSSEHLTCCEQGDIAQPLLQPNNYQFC

phosphorylated IRAK1 = details: AML cells; cited from earlier work
c-kit = c-kit (Homo sapiens, UniProt P10721); experiment: HotSpot radioisotope filter-binding kinase assay; assay type: biochemical
CSF1R (c-fms) [5] = biological target: T4, CSF1R (c-fms); experiment: HotSpot radioisotope filter-binding kinase assay; assay type: biochemical
ROS1 [6] = biological target: T1, ROS1; experiment: HotSpot radioisotope filter-binding kinase assay; assay type: biochemical
[7] = Steady-state peak plasma concentration after 400 mg daily; assay type: in vivo; details: humans, calculated/simulated
HIPK4 [8] = biological target: T3, HIPK4; experiment: HotSpot radioisotope filter-binding kinase assay; assay type: biochemical
TNK1 = biological target: T5, TNK1 (Homo sapiens, UniProt Q13470); experiment: HotSpot radioisotope filter-binding kinase assay; assay type: biochemical
T5 sequence (Q13470 1-666): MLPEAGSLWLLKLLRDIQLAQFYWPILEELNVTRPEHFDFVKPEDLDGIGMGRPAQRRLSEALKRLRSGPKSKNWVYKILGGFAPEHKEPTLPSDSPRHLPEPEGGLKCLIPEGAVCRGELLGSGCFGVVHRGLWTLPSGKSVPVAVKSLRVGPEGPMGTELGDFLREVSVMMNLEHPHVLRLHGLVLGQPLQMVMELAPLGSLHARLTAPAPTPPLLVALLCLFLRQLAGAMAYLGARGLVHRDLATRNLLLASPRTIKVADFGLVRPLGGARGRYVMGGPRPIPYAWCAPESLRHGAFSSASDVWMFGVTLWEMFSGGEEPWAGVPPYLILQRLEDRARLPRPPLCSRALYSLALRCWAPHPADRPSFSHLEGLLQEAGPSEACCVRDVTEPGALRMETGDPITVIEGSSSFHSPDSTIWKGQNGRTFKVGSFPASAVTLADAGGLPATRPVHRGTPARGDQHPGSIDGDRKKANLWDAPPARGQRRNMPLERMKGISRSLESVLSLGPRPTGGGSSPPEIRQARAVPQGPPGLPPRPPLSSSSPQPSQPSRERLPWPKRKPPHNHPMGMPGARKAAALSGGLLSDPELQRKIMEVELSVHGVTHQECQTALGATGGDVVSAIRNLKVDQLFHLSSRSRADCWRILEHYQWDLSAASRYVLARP

TYK2 = TYK2 (Homo sapiens, UniProt P29597); experiment: HotSpot radioisotope filter-binding kinase assay; assay type: biochemical
AML cell lines = AML cell lines harboring various mutations; cited from earlier work
c-src [9] = biological target: T2, c-src; experiment: HotSpot radioisotope filter-binding kinase assay; assay type: biochemical
JAK1 = JAK1 (Homo sapiens, UniProt P23458); experiment: HotSpot radioisotope filter-binding kinase assay; assay type: biochemical
Sequence of JAK1 (P23458 whole entry): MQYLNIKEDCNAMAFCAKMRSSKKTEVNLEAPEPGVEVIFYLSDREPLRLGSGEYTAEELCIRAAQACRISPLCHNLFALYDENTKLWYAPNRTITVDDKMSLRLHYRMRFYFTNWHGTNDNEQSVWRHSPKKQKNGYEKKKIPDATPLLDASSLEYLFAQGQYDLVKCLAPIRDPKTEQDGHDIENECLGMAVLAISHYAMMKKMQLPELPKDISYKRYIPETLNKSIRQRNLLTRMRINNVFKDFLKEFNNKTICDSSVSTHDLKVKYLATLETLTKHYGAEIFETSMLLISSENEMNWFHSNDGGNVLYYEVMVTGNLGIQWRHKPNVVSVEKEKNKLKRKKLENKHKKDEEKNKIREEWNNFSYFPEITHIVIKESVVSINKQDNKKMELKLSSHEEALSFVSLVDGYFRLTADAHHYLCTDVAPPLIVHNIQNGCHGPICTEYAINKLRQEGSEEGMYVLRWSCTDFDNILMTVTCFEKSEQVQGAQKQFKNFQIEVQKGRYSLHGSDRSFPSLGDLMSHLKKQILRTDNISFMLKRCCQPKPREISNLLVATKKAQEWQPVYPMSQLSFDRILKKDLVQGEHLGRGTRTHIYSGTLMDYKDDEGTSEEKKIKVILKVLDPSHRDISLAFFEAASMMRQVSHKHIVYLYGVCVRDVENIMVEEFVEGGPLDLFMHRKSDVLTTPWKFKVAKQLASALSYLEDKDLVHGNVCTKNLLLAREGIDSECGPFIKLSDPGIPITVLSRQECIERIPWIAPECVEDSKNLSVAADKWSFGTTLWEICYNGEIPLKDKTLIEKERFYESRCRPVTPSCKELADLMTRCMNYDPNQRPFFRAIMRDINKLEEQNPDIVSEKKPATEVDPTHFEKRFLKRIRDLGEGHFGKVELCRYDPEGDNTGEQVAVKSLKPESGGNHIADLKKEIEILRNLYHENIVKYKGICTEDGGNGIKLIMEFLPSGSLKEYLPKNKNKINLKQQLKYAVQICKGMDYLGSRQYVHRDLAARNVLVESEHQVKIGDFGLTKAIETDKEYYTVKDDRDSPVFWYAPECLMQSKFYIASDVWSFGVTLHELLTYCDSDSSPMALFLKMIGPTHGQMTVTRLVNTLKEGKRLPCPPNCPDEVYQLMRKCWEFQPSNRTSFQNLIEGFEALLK

TRKC = TRKC (Homo sapiens, UniProt Q16288); experiment: HotSpot radioisotope filter-binding kinase assay; assay type: biochemical
IRAK1 = IRAK1 (Homo sapiens, UniProt P51617); experiment: HotSpot radioisotope filter-binding kinase assay; assay type: biochemical
primary CMML cells = details: cited from earlier work
[10] = IC50, recombinant kinase, 10 μM ATP

T1 sequence (P08922 28-2347): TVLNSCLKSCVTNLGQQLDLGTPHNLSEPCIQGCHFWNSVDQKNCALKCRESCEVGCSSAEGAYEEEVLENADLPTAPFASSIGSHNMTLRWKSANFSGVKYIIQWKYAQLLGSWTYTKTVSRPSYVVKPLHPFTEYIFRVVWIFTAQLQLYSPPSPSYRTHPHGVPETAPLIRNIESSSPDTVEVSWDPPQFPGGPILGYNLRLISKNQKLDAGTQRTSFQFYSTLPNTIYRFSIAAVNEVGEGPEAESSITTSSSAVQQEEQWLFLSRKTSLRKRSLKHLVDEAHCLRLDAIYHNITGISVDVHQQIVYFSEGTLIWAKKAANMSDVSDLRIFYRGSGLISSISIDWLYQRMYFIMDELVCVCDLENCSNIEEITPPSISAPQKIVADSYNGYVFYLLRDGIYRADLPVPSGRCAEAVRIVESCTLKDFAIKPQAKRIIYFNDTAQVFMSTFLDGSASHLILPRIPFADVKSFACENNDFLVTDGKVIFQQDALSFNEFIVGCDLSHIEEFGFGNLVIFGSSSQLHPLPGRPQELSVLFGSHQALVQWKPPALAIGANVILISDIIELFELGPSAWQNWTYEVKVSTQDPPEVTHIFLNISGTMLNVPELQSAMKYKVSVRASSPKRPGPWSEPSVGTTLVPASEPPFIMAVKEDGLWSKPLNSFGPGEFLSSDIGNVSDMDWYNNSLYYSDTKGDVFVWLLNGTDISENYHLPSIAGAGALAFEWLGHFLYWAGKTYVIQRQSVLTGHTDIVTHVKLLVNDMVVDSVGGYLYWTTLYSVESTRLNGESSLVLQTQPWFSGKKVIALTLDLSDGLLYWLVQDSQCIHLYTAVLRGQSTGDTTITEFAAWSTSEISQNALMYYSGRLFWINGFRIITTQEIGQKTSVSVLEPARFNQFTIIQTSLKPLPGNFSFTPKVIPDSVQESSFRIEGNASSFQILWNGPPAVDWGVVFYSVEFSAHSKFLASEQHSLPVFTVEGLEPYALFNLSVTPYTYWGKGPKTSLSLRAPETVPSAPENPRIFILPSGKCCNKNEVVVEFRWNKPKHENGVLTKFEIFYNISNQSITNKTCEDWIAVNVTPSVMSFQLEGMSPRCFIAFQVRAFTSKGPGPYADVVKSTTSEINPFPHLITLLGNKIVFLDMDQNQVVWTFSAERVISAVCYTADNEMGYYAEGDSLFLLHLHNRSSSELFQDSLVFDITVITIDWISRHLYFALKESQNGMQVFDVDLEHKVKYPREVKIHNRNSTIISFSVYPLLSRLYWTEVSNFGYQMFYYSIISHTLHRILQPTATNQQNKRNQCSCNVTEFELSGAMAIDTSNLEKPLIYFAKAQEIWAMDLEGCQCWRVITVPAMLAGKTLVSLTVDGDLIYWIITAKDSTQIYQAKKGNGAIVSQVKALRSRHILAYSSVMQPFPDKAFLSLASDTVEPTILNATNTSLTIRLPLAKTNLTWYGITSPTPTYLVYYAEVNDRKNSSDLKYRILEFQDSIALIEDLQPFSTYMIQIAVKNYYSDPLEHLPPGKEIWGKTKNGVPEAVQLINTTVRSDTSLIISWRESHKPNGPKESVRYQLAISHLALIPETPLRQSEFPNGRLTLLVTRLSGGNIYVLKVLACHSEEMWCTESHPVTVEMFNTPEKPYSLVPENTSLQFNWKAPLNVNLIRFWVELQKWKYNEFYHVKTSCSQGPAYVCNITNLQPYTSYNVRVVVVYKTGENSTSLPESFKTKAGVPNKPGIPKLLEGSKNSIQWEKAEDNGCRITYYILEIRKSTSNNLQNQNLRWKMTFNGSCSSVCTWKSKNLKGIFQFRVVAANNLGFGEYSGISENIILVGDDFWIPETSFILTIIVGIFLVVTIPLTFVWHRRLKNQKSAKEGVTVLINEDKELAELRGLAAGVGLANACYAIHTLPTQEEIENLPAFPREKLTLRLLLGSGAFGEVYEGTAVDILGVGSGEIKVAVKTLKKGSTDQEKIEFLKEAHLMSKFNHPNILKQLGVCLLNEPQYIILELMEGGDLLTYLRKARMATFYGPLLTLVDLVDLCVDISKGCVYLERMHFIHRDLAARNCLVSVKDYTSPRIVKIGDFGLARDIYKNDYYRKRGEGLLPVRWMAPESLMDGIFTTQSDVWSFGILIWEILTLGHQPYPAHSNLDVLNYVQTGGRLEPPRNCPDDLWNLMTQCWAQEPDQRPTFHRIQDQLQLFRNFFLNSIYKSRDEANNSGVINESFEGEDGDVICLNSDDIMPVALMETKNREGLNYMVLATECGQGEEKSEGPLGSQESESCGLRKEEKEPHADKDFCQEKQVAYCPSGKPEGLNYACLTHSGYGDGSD
T2 sequence (P12931 whole entry): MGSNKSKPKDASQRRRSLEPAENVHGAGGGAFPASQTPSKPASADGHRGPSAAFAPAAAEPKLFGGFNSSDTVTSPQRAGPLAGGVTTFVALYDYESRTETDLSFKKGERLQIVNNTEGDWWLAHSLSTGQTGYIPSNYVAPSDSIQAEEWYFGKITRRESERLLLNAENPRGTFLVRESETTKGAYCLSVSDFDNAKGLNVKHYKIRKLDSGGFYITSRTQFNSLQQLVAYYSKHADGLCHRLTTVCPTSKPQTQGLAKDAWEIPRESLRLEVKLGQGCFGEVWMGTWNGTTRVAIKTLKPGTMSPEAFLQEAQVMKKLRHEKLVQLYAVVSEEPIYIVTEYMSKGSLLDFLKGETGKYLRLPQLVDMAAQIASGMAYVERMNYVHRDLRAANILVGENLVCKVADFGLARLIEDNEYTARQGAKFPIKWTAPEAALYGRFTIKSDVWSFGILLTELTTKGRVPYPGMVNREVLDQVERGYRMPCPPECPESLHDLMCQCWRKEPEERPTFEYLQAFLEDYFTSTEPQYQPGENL

N#CCNC(=O)c1ccc(-c2ccnc(Nc3ccc(N4CCOCC4)cc3)n2)cc1 [Momelotinib]
pIC50 (ROS1 [1]): > 6.00
pIC50 (c-src [2]): < 6.00
pIC50 (HIPK4 [3]): > 6.00
pIC50 (CSF1R (c-fms) [4]): > 6.00

C1=C/COCc2cc(ccc2OCCN2CCCC2)Nc2nccc(n2)-c2cccc(c2)COC/1 [Pacritinib, 11-(2-pyrrolidin-1-yl-ethoxy)-14,19-dioxa-5,7,26-triaza-tetracyclo[19.3.1.1(2,6). 1(8,12)]heptacosa-1(25),2(26),3,5,8,10,12(27),16,21,23-decaene]
phosphorylation of IRAK1 (phosphorylated IRAK1): inhibits the phosphorylation of IRAK1
pIC50 (c-kit; IC50 (class), Pacritinib scale): 7.30 to 7.60
pIC50 (c-kit; [10]): 7.36
pIC50 (CSF1R (c-fms) [5]; IC50 (class), Pacritinib scale): 7.30 to 7.60
pIC50 (CSF1R (c-fms) [5]; [10]): > 7.30
pIC50 (ROS1 [6]; IC50 (class), Pacritinib scale): > 7.60
pIC50 (ROS1 [6]; [10]): 7.74
total steady-state levels [7]: 5 to 7 µM
mean peak plasma concentration of free drug at steady state ([7]; oral): approximately 200 nM
pIC50 (HIPK4 [8]; IC50 (class), Pacritinib scale): > 7.60
pIC50 (HIPK4 [8]; [10]): 7.84
pIC50 (TNK1; IC50 (class), Pacritinib scale): > 7.60
pIC50 (TNK1; [10]): 7.82
pIC50 (TYK2; IC50 (class), Pacritinib scale): 7.30 to 7.60
pIC50 (TYK2; [10]): 7.57
viability and survival (AML cell lines): reduces both the viability and survival
pIC50 (c-src [9]; IC50 (class), Pacritinib scale): 7.30 to 7.60
pIC50 (c-src [9]; [10]): 7.33
pIC50 (JAK1): < 7.00
remaining activity at 0.1 µM (JAK1; read-out: kinase activity remaining (% control)): 82%
IC50 (JAK1; recombinant kinase, 10 μM ATP): Indeterminate
pIC50 (TRKC; IC50 (class), Pacritinib scale): > 7.60
pIC50 (TRKC; [10]): 7.74
pIC50 (IRAK1; IC50 (class), Pacritinib scale): > 7.60
pIC50 (IRAK1; [10]): 7.87
activity combined with 5-azacitidine (primary CMML cells): synergistic activity
